From ChEMBL document CHEMBL3994622, “Design and synthesis of new RAF kinase-inhibiting antiproliferative quinoline derivatives. Part 2: Diarylurea derivatives” (Eur J Med Chem, 2017)

Key:
Format in all cases: functional
HCT-15 = experiment: Growth inhibition of human HCT15 cells assessed as cell growth at 10 uM incubated for 48 hrs by sulforhodamine B assay relative to control; conditions: HCT-15, 48 h, read-out: Activity
SK-MEL-5 = experiment: Growth inhibition of human SK-MEL-5 cells assessed as cell growth at 10 uM incubated for 48 hrs by sulforhodamine B assay relative to control; conditions: SK-MEL-5, 48 h, read-out: Activity
RPMI-8226 = experiment: Growth inhibition of human RPMI8226 cells assessed as cell growth at 10 uM incubated for 48 hrs by sulforhodamine B assay relative to control; conditions: RPMI-8226, 48 h, read-out: Activity
NCI/ADR-RES = experiment: Growth inhibition of human NCI/ADR-RES cells assessed as cell growth at 10 uM incubated for 48 hrs by sulforhodamine B assay relative to control; conditions: read-out: Activity
OVCAR-8 = experiment: Growth inhibition of human OVCAR8 cells assessed as cell growth at 10 uM incubated for 48 hrs by sulforhodamine B assay relative to control; conditions: OVCAR-8, 48 h, read-out: Activity
SW-620 = experiment: Growth inhibition of human SW620 cells assessed as cell growth at 10 uM incubated for 48 hrs by sulforhodamine B assay relative to control; conditions: SW-620, 48 h, read-out: Activity
BT-549 = experiment: Growth inhibition of human BT549 cells assessed as cell growth at 10 uM incubated for 48 hrs by sulforhodamine B assay relative to control; conditions: BT-549, 48 h, read-out: Activity
EKVX = experiment: Growth inhibition of human EKVX cells assessed as cell growth at 10 uM incubated for 48 hrs by sulforhodamine B assay relative to control; conditions: read-out: Activity
OVCAR-3 = experiment: Growth inhibition of human OVCAR3 cells assessed as cell growth at 10 uM incubated for 48 hrs by sulforhodamine B assay relative to control; conditions: OVCAR-3, 48 h, read-out: Activity
Malme-3M = experiment: Growth inhibition of human MALME-3M cells assessed as cell growth at 10 uM incubated for 48 hrs by sulforhodamine B assay relative to control; conditions: read-out: Activity
HOP-62 = experiment: Growth inhibition of human HOP62 cells assessed as cell growth at 10 uM incubated for 48 hrs by sulforhodamine B assay relative to control; conditions: HOP-62, 48 h, read-out: Activity
UO-31 = experiment: Growth inhibition of human UO31 cells assessed as cell growth at 10 uM incubated for 48 hrs by sulforhodamine B assay relative to control; conditions: UO-31, 48 h, read-out: Activity
PC-3 = experiment: Growth inhibition of human PC3 cells assessed as cell growth at 10 uM incubated for 48 hrs by sulforhodamine B assay relative to control; conditions: PC-3, 48 h, read-out: Activity
LOX IMVI = experiment: Growth inhibition of human LOXIMVI cells assessed as cell growth at 10 uM incubated for 48 hrs by sulforhodamine B assay relative to control; conditions: read-out: Activity
SF-539 = experiment: Growth inhibition of human SF539 cells assessed as cell growth at 10 uM incubated for 48 hrs by sulforhodamine B assay relative to control; conditions: SF-539, 48 h, read-out: Activity
COLO 205 = experiment: Growth inhibition of human COLO205 cells assessed as cell growth at 10 uM incubated for 48 hrs by sulforhodamine B assay relative to control; conditions: COLO 205, 48 h, read-out: Activity
HT-29 = experiment: Growth inhibition of human HT-29 cells assessed as cell growth at 10 uM incubated for 48 hrs by sulforhodamine B assay relative to control; conditions: HT-29, 48 h, read-out: Activity
K562 = experiment: Growth inhibition of human K562 cells assessed as cell growth at 10 uM incubated for 48 hrs by sulforhodamine B assay relative to control; conditions: K562, 48 h, read-out: Activity
HCC 2998 = experiment: Growth inhibition of human HCC2998 cells assessed as cell growth at 10 uM incubated for 48 hrs by sulforhodamine B assay relative to control; conditions: HCC 2998, 48 h, read-out: Activity
786-0 = experiment: Growth inhibition of human 786-0 cells assessed as cell growth at 10 uM incubated for 48 hrs by sulforhodamine B assay relative to control; conditions: 786-0, 48 h, read-out: Activity
RXF 393 = experiment: Growth inhibition of human RXF393 cells assessed as cell growth at 10 uM incubated for 48 hrs by sulforhodamine B assay relative to control; conditions: RXF 393, 48 h, read-out: Activity
UACC-257 = experiment: Growth inhibition of human UACC257 cells assessed as cell growth at 10 uM incubated for 48 hrs by sulforhodamine B assay relative to control; conditions: UACC-257, 48 h, read-out: Activity
SK-MEL-2 = experiment: Growth inhibition of human SK-MEL-2 cells assessed as cell growth at 10 uM incubated for 48 hrs by sulforhodamine B assay relative to control; conditions: SK-MEL-2, 48 h, read-out: Activity
SK-MEL-28 = experiment: Growth inhibition of human SK-MEL-28 cells assessed as cell growth at 10 uM incubated for 48 hrs by sulforhodamine B assay relative to control; conditions: SK-MEL-28, 48 h, read-out: Activity
SNB-75 = experiment: Growth inhibition of human SNB75 cells assessed as cell growth at 10 uM incubated for 48 hrs by sulforhodamine B assay relative to control; conditions: SNB-75, 48 h, read-out: Activity
MCF7 = experiment: Growth inhibition of human MCF7 cells assessed as cell growth at 10 uM incubated for 48 hrs by sulforhodamine B assay relative to control; conditions: MCF7, 48 h, read-out: Activity
T47D = experiment: Growth inhibition of human T47D cells assessed as cell growth at 10 uM incubated for 48 hrs by sulforhodamine B assay relative to control; conditions: read-out: Activity
DU-145 = experiment: Growth inhibition of human DU145 cells assessed as cell growth at 10 uM incubated for 48 hrs by sulforhodamine B assay relative to control; conditions: DU-145, 48 h, read-out: Activity
SF-295 = experiment: Growth inhibition of human SF295 cells assessed as cell growth at 10 uM incubated for 48 hrs by sulforhodamine B assay relative to control; conditions: SF-295, 48 h, read-out: Activity
MDA-MB-435 = experiment: Growth inhibition of human MDA-MB-435 cells assessed as cell growth at 10 uM incubated for 48 hrs by sulforhodamine B assay relative to control; conditions: MDA-MB-435, 48 h, read-out: Activity
U-251 = experiment: Growth inhibition of human U251 cells assessed as cell growth at 10 uM incubated for 48 hrs by sulforhodamine B assay relative to control; conditions: U-251, 48 h, read-out: Activity
HOP-92 = experiment: Growth inhibition of human HOP92 cells assessed as cell growth at 10 uM incubated for 48 hrs by sulforhodamine B assay relative to control; conditions: HOP-92, 48 h, read-out: Activity
OVCAR-4 = experiment: Growth inhibition of human OVCAR4 cells assessed as cell growth at 10 uM incubated for 48 hrs by sulforhodamine B assay relative to control; conditions: OVCAR-4, 48 h, read-out: Activity

| SMILES | growth at 10 µM (HCT-15) | growth at 10 µM (SK-MEL-5) | growth at 10 µM (RPMI-8226) | growth at 10 µM (NCI/ADR-RES) | growth at 10 µM (OVCAR-8) | growth at 10 µM (SW-620) | growth at 10 µM (BT-549) | growth at 10 µM (EKVX) | growth at 10 µM (OVCAR-3) | growth at 10 µM (Malme-3M) | growth at 10 µM (HOP-62) | growth at 10 µM (UO-31) | growth at 10 µM (PC-3) | growth at 10 µM (LOX IMVI) | growth at 10 µM (SF-539) | growth at 10 µM (COLO 205) | growth at 10 µM (HT-29) | growth at 10 µM (HCC 2998) | growth at 10 µM (786-0) | growth at 10 µM (RXF 393) | further results |
| --- | --- | --- | --- | --- | --- | --- | --- | --- | --- | --- | --- | --- | --- | --- | --- | --- | --- | --- | --- | --- | --- |
| COc1cc2cc(Oc3ccc(NC(=O)Nc4ccc(C)cc4)cc3)c(C)nc2cc1OC | 103% | 100% | 101% | 107% | 87.4% | 107% | 130% | 107% | 113% | 94.6% | 66.9% | 89.2% | 94.5% | 102% | 108% | 111% | 115% | 104% | 126% | 82.1% | growth at 10 µM (K562): 90.8%; growth at 10 µM (UACC-257): 112%; growth at 10 µM (SK-MEL-2): 91.5%; growth at 10 µM (SK-MEL-28): 109%; growth at 10 µM (SNB-75): 56.3%; growth at 10 µM (MCF7): 94.5%; growth at 10 µM (T47D): 101%; growth at 10 µM (DU-145): 102%; growth at 10 µM (SF-295): 107%; growth at 10 µM (MDA-MB-435): 107%; growth at 10 µM (U-251): 99.9% |
| COc1cc2cc(Sc3ccc(NC(=O)Nc4ccc(Cl)c(Cl)c4)cc3)c(C)nc2cc1OC | 75.9% | 71% | 54.5% | 86.2% | 83.6% | 89.9% | 77.8% | 69.4% | 73% | 89.9% | 92.6% | 62.8% | 56.1% | 94.7% | 86% | 87.8% | 91.9% | 101% | 73.4% | 84.4% | growth at 10 µM (K562): 52.5%; growth at 10 µM (HOP-92): 71.2%; growth at 10 µM (UACC-257): 90%; growth at 10 µM (SK-MEL-2): 72.6%; growth at 10 µM (SK-MEL-28): 96.5%; growth at 10 µM (SNB-75): 86.4%; growth at 10 µM (MCF7): 75.3%; growth at 10 µM (OVCAR-4): 78.2%; growth at 10 µM (DU-145): 75.5%; growth at 10 µM (SF-295): 56.5%; growth at 10 µM (MDA-MB-435): 76.7%; growth at 10 µM (U-251): 70% |
| COc1cc2cc(Oc3ccc(NC(=O)Nc4ccccc4)cc3)c(C)nc2cc1OC | 64.1% | 60.8% | 38.8% | 84.3% | 71.9% | 105% | 104% | 63.4% | 67.1% | 86.4% | 103% | 65.9% | 60.4% | 82.1% | 78% | 85.7% | 48.9% | 105% | 94.8% | 76.7% | growth at 10 µM (K562): 42.8%; growth at 10 µM (UACC-257): 92.4%; growth at 10 µM (SK-MEL-2): 78.8%; growth at 10 µM (SK-MEL-28): 96.2%; growth at 10 µM (SNB-75): 75.8%; growth at 10 µM (MCF7): 72.8%; growth at 10 µM (OVCAR-4): 70.2%; growth at 10 µM (T47D): 97.1%; growth at 10 µM (DU-145): 88.7%; growth at 10 µM (SF-295): 54%; growth at 10 µM (MDA-MB-435): 89.4%; growth at 10 µM (U-251): 48% |
| COc1cc2cc(Oc3ccc(NC(=O)Nc4cc(C(F)(F)F)cc(C(F)(F)F)c4)cc3)c(C)nc2cc1OC | 2.75% | -58.5% | 1.15% | 7.03% | 14.2% | 15.9% | 1.44% | 2.88% | 1.71% | -3.13% | -54.1% | 11.6% | 6.82% | 1.98% | -41% | -81.2% | 4.89% | 21.3% | -16.6% | -24.5% | growth at 10 µM (HOP-92): -25.4%; growth at 10 µM (UACC-257): -4.68%; growth at 10 µM (SK-MEL-2): -30.4%; growth at 10 µM (SK-MEL-28): 7.66%; growth at 10 µM (SNB-75): 9.73%; growth at 10 µM (MCF7): 0.59%; growth at 10 µM (OVCAR-4): 27.9%; growth at 10 µM (T47D): 7.52%; growth at 10 µM (DU-145): 19.5%; growth at 10 µM (SF-295): -59.2%; growth at 10 µM (MDA-MB-435): -2.55%; growth at 10 µM (U-251): -26.5% |
